1 compound from ChEMBL document CHEMBL3621174, “Synthesis and evaluation of new tyrosyl-tRNA synthetase inhibitors as antibacterial agents based on a N2-(arylacetyl)glycinanilide scaffold” (Eur J Med Chem, 2015) can be followed below.

A short description of test [1]: Inhibition of Staphylococcus aureus Tyrosyl-tRNA synthetase using L-[ring-3,5-3H] tyrosine as substrate after 10 min by liquid scintillation assay.
In test [2] the test system is Staphylococcus aureus. The test can be described thus: Antibacterial activity against Staphylococcus aureus ATCC 6538 after 24 hr by MTT assay. The test is classed as functional. The following applies: ATCC 6538, 24 h. (In general: Tetrazolium assays rely on reduction of a dye to a coloured formazan, in cell work by metabolically active cells.)
Test [3] concerns Staphylococcus aureus. The test can be described thus: Antibacterial activity against Staphylococcus aureus ATCC 25923 after 24 hr by MTT assay. The following applies: ATCC 25923, 24 h. The class given is functional.
The test system of test [4] is Escherichia coli. The test can be described thus: Antibacterial activity against Escherichia coli ATCC 8739 after 24 hr by MTT assay. The class given is functional. The following applies: ATCC 8739, 24 h.
Test [5] deals with Escherichia coli. The test can be described thus: Antibacterial activity against Escherichia coli ATCC 35218 after 24 hr by MTT assay. The test is classed as functional. The following applies: ATCC 35218, 24 h.
Test [6] deals with Pseudomonas aeruginosa. The test can be described thus: Antibacterial activity against Pseudomonas aeruginosa ATCC 9027 after 24 hr by MTT assay. The following applies: ATCC 9027, 24 h. The class given is functional.
The subject of test [7] is Staphylococcus aureus. The test can be described thus: Potency index, ratio of penicillin G MIC to compound MIC for Staphylococcus aureus ATCC 6538. The class given is functional.
Test [8] has as its system Pseudomonas aeruginosa. The test can be described thus: Potency index, ratio of penicillin G MIC to compound MIC for Pseudomonas aeruginosa ATCC 9027. The class given is functional.

In brackets after ≈: the same amount, converted by molar mass.

Take `O=C(Cc1cccc(Cl)c1)NCC(=O)Nc1ccc([N+](=O)[O-])cc1`: inhibition in test [1] was half-maximal at 700 nM (IC50). In addition, the MIC (usually the smallest concentration in the dilution series that meets the test's criterion for growth inhibition) in the test on Staphylococcus aureus [2] came out at 1.84 µM (≈ 0.64 µg/mL); against Staphylococcus aureus [3], 2.36 µM (≈ 0.821 µg/mL); against Escherichia coli [4] it was 6.8 µM (≈ 2.36 µg/mL); against Escherichia coli [5] it was 9.5 µM (≈ 3.3 µg/mL); with Pseudomonas aeruginosa [6] it was 10.1 µM (≈ 3.51 µg/mL). The MIC50 (commonly an inhibitory concentration at the 50% level, which refers to growth in some studies and to a panel of isolates in others) came to 0.52 µM (≈ 0.181 µg/mL) in the test on Staphylococcus aureus [2] and 3.37 µM (≈ 1.17 µg/mL) with Pseudomonas aeruginosa [6]. The Ratio is listed as 3 in the test on Staphylococcus aureus [7] and 3.9 with Pseudomonas aeruginosa [8].
